{
  "source": "patent US20040048350A1",
  "about": "(priority 2001, published 2004)",
  "key": {"E. coli RNAP holoenzyme": {"molecular_target": "E. coli RNAP holoenzyme (Escherichia coli, UniProt P0A8V2)", "sequence (P0A8V2 whole entry)": "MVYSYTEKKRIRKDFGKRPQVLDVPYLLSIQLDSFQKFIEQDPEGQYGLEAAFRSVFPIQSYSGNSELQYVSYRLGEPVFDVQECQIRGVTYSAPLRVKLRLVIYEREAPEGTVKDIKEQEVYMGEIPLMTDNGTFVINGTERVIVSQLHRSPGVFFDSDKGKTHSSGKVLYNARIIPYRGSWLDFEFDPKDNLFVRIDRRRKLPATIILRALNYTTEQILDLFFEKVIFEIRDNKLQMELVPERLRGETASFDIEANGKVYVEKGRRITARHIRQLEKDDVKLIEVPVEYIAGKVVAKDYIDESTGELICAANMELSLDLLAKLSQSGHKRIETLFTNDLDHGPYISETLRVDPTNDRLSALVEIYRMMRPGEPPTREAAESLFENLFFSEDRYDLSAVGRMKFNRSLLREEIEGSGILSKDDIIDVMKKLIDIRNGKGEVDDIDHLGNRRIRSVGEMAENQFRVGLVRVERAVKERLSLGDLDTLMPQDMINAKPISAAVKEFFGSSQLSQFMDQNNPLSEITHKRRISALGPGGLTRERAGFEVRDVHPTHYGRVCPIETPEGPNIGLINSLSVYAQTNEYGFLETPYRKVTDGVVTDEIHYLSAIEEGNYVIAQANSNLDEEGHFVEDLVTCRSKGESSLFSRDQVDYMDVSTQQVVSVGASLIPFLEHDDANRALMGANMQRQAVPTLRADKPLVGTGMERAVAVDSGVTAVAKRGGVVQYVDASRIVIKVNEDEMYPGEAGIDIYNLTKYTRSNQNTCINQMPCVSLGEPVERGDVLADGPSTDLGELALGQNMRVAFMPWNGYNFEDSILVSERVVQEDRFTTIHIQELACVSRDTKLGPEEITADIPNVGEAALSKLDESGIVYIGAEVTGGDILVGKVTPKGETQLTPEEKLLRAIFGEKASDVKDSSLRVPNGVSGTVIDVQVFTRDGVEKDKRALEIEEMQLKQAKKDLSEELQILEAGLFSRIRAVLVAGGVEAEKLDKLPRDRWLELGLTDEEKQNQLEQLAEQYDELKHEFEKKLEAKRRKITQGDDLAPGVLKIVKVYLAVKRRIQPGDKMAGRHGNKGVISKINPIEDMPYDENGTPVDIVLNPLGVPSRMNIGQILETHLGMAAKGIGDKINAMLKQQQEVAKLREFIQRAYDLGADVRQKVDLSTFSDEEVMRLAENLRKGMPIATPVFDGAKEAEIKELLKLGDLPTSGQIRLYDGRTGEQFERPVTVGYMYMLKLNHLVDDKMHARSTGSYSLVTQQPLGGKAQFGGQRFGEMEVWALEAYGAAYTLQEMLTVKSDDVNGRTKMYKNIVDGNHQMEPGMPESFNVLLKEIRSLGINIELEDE", "sequence (P0A8T7 whole entry partner)": "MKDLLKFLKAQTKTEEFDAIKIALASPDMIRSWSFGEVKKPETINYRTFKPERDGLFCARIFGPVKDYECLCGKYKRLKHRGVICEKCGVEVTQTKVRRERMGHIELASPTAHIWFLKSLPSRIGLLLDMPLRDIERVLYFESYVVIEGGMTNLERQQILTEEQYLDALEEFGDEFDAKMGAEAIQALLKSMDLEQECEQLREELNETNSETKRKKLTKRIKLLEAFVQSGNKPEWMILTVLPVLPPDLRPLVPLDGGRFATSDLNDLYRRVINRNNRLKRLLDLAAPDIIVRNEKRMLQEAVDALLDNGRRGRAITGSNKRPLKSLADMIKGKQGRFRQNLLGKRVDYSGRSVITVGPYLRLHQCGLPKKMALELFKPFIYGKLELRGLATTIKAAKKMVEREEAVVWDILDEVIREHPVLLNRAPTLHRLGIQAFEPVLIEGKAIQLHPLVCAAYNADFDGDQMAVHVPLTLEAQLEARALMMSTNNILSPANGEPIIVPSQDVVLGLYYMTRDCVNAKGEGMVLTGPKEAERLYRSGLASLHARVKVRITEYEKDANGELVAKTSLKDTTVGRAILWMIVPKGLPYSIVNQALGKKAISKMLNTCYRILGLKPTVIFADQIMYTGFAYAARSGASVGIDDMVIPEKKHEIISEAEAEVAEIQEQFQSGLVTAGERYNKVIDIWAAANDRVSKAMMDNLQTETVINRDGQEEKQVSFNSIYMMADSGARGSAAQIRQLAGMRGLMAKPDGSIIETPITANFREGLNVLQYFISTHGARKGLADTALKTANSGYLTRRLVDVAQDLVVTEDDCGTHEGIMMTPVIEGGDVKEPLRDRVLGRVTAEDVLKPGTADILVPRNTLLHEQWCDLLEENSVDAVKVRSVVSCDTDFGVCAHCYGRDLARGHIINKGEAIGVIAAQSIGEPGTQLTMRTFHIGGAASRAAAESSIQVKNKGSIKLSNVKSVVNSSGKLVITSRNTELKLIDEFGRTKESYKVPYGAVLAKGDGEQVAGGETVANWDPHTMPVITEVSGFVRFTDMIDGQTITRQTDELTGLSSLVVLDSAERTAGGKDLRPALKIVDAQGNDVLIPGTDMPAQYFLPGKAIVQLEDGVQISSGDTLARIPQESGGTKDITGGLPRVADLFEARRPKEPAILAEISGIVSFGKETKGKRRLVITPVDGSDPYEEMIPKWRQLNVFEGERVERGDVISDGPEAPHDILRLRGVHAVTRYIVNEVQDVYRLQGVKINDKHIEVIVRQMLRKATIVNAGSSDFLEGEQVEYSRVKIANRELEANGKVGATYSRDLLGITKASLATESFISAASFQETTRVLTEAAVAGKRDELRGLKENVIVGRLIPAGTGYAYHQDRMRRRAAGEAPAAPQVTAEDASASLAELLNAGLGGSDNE", "sequence (P0A7Z4 whole entry partner)": "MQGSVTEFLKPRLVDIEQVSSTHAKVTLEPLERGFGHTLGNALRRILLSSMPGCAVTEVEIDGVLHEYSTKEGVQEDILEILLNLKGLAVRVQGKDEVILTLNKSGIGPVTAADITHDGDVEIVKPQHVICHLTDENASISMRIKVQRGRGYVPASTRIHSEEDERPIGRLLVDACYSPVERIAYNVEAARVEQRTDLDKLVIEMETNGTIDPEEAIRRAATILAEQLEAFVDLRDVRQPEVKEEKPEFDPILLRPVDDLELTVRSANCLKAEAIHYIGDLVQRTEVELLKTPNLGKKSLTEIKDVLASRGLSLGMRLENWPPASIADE", "sequence (P0A800 whole entry partner)": "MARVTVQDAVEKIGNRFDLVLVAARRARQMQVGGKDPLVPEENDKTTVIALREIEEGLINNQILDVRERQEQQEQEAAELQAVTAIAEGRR", "sequence (P00579 whole entry partner)": "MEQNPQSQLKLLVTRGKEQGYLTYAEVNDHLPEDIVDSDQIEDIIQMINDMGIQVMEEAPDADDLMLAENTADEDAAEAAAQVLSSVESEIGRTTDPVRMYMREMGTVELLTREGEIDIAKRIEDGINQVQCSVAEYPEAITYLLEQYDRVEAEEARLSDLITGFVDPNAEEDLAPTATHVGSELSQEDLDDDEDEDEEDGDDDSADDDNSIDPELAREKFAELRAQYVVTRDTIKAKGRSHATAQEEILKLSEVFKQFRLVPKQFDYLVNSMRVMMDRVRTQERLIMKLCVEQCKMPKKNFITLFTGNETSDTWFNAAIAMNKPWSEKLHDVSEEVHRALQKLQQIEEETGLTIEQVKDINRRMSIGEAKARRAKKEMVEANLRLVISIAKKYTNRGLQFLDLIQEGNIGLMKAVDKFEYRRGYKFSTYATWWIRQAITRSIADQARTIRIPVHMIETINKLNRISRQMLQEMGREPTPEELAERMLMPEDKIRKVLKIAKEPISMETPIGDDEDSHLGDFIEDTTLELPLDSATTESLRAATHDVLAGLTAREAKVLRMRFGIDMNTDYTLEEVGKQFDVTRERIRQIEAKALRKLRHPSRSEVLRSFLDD", "test": "Transcription assay, T7A1 promoter template, rifampicin inhibition of E. coli RNAP holoenzyme", "assay_type": "biochemical", "settings": "CpA primer, 37° C., read-out: Ki (estimated from the rifampicin concentration where the production of long transcripts was inhibited by 50%)", "from_the_text": "(§1) FIG. 2a depicts autoradiographs showing the radioactive RNA produced by Taq (lanes 1-7) and E. coli (lanes 8-13) RNAP holoenzymes transcribing a template containing the T7 A1 promoter and the tR2 terminator, analyzed on a 15% polyacrylamide gel and quantitated by phosphorimagery. In the absence of rifampicin (lanes 1 and 8), the major RNA products from each RNAP correspond to a trimeric abortive product (CpApU), a 105 nucleotide terminated transcript (Term), and a 127 nucleotide runoff transcript (Run off). Lanes 2-7 and 9-13 show the effects of increasing concentrations of rifampicin. […] Rif-nucleotide compounds (Rif-(CH2)n-Ap) with different linker lengths, n (indicated above each lane) were bound to RNAP, then extended in a specific transcription reaction with α-[^32P]UTP by the RNAP catalytic activity. The products were analyzed on a 23% polyacrylamide gel, visualized by autoradiography, and quantitated by phosphorimagery.\n(§2) The transcription assay comparing rifampicin inhibition of E.coli and Taq RNAPs (FIG. 2a) was performed as previously described [Nudler et al., Science 265:793-796 (1994)]. Briefly, 0.1 pmol of purified Taq core RNAP [Zhang et al., Cell 98:811-824 (1999); U.S. Ser. No. 09/396,651, Filed Sep. […] Radioactive RNA products were analyzed on a 15% polyacrylamide sequencing gel."}, "Taq RNAP holoenzyme": {"molecular_target": "T1, Taq RNAP holoenzyme (Thermus aquaticus, UniProt Q9KWU7)", "T1 construct": "Taq core RNAP purified from Taq cells; made in house; host or cells: core: purified natively from Thermus aquaticus cells; σA: recombinant in E. coli", "test": "Transcription assay, T7A1 promoter template, rifampicin inhibition of Taq RNAP holoenzyme", "assay_type": "biochemical", "settings": "CpA primer, 37° C., read-out: Ki (estimated from the rifampicin concentration where the production of long transcripts was inhibited by 50%)", "from_the_text": "as §1, §2"}},
  "data": [
    {"smiles": "CO[C@H]1/C=C/O[C@@]2(C)Oc3c(C)c(O)c4c(O)c(c(/C=N/N5CCN(C)CC5)c(O)c4c3C2=O)NC(=O)/C(C)=C\\C=C\\[C@H](C)[C@H](O)[C@@H](C)[C@@H](O)[C@@H](C)[C@H](OC(C)=O)[C@@H]1C", "note": "[rifampicin]", "values": [
      {"measurement": "Ki", "setting": "E. coli RNAP holoenzyme", "value": "~0.1", "unit": "µM"},
      {"measurement": "Ki", "setting": "Taq RNAP holoenzyme", "value": "~10", "unit": "µM"}
    ]}
  ]
}
